According to ChEMBL document CHEMBL3044572, “Discovery of 2-(4-cyano-3-trifluoromethylphenyl amino)-4-(4-quinazolinyloxy)-6-piperazinyl(piperidinyl)-s-triazines as potential antibacterial agents” (2012):
Values after ≈ are worked out from the molar mass of the structure shown. Active and inactive are the calls of the source. The calls are words filed in the database; no cut-off is given here.

How the values were obtained:
[1] = test system: Mycobacterium tuberculosis; assay: Antimicrobial activity against Mycobacterium tuberculosis H37Rv at 100 ug/ml by BACTEC MGIT method; assay type: functional, organism-based
[2] = test system: Escherichia coli; assay: Antimicrobial activity against Escherichia coli MTCC 739 by paper disk diffusion method; assay type: functional
[3] = test system: Aspergillus fumigatus; assay: Antimicrobial activity against Aspergillus fumigatus MTCC 343 by paper-disk diffusion method; assay type: functional
[4] = test system: Pseudomonas aeruginosa; assay: Antimicrobial activity against Pseudomonas aeruginosa MTCC 741 by paper disk diffusion method; assay type: functional
[5] = test system: Bacillus cereus; assay: Antimicrobial activity against Bacillus cereus MTCC 619 by paper disk diffusion method; assay type: functional
[6] = test system: Salmonella typhi; assay: Antimicrobial activity against Salmonella enterica subsp. enterica serovar Typhi MTCC 733 by paper disk diffusion method; assay type: functional
[7] = test system: Aspergillus niger; assay: Antimicrobial activity against Aspergillus niger MTCC 282 by paper-disk diffusion method; assay type: functional
[8] = test system: Candida albicans; assay: Antimicrobial activity against Candida albicans MTCC 183 by paper-disk diffusion method; assay type: functional
[9] = test system: Mycobacterium tuberculosis; assay: Antimicrobial activity against Mycobacterium tuberculosis H37Rv by Lowenstein and Jensen method; assay type: functional; conditions: for MIC: Mycobacterium tuberculosis, H37Rv
[10] = test system: Staphylococcus aureus; assay: Antimicrobial activity against Staphylococcus aureus MTCC 96 by paper-disk diffusion method; assay type: functional
[11] = test system: Klebsiella pneumoniae; assay: Antimicrobial activity against Klebsiella pneumoniae MTCC 109 at 100 ug/ml by paper disk diffusion method; assay type: functional, organism-based
[12] = test system: Aspergillus niger; assay: Antimicrobial activity against Aspergillus niger MTCC 282 by agar streak dilution method; assay type: functional
[13] = test system: Bacillus cereus; assay: Antimicrobial activity against Bacillus cereus MTCC 619 by agar streak dilution method; assay type: functional
[14] = test system: Mycobacterium tuberculosis; assay: Antimicrobial activity against Mycobacterium tuberculosis H37Rv by BACTEC MGIT method; assay type: functional; conditions: Mycobacterium tuberculosis, H37Rv
[15] = test system: Aspergillus clavatus; assay: Antimicrobial activity against Aspergillus clavatus MTCC 1323 at 100 ug/ml by paper disk diffusion method; assay type: functional, organism-based
[16] = test system: Escherichia coli; assay: Antimicrobial activity against Escherichia coli MTCC 739 by agar streak dilution method; assay type: functional
[17] = test system: Pseudomonas aeruginosa; assay: Antimicrobial activity against Pseudomonas aeruginosa MTCC 741 by agar streak dilution method; assay type: functional
[18] = test system: Staphylococcus aureus; assay: Antimicrobial activity against Staphylococcus aureus MTCC 96 by agar streak dilution method; assay type: functional
[19] = test system: Proteus vulgaris; assay: Antimicrobial activity against Proteus vulgaris MTCC 1771 at 100 ug/ml by paper disk diffusion method; assay type: functional, organism-based
[20] = test system: Aspergillus fumigatus; assay: Antimicrobial activity against Aspergillus fumigatus MTCC 343 by agar streak dilution method; assay type: functional
[21] = test system: Candida albicans; assay: Antimicrobial activity against Candida albicans MTCC 183 by agar streak dilution method; assay type: functional
[22] = test system: Salmonella typhi; assay: Antimicrobial activity against Salmonella enterica subsp. enterica serovar Typhi MTCC 733 by agar streak dilution method; assay type: functional
[23] = test system: Shigella flexneri; assay: Antimicrobial activity against Shigella flexneri MTCC 1457 at 100 ug/ml by paper-disk diffusion method; assay type: functional, organism-based
[24] = test system: Proteus vulgaris; assay: Antimicrobial activity against Proteus vulgaris MTCC 1771 by paper disk diffusion method; assay type: functional
[25] = test system: Escherichia coli; assay: Antimicrobial activity against Escherichia coli MTCC 739 at 100 ug/ml by paper-disk diffusion method; assay type: functional, organism-based
[26] = test system: Bacillus cereus; assay: Antimicrobial activity against Bacillus cereus MTCC 619 at 100 ug/ml by paper disk diffusion method; assay type: functional, organism-based
[27] = test system: Aspergillus fumigatus; assay: Antimicrobial activity against Aspergillus fumigatus MTCC 343 at 100 ug/ml by paper-disk diffusion method; assay type: functional, organism-based
[28] = test system: Proteus vulgaris; assay: Antimicrobial activity against Proteus vulgaris MTCC 1771 by agar streak dilution method; assay type: functional
[29] = test system: Salmonella typhi; assay: Antimicrobial activity against Salmonella enterica subsp. enterica serovar Typhi MTCC 733 at 100 ug/ml by paper disk diffusion method; assay type: functional, organism-based
[30] = test system: Pseudomonas aeruginosa; assay: Antimicrobial activity against Pseudomonas aeruginosa MTCC 741 at 100 ug/ml by paper disk diffusion method; assay type: functional, organism-based
[31] = test system: Shigella flexneri; assay: Antimicrobial activity against Shigella flexneri MTCC 1457 by paper disk diffusion method; assay type: functional
[32] = test system: Aspergillus niger; assay: Antimicrobial activity against Aspergillus niger MTCC 282 at 100 ug/ml by paper-disk diffusion method; assay type: functional, organism-based
[33] = test system: Shigella flexneri; assay: Antimicrobial activity against Shigella flexneri MTCC 1457 by agar streak dilution method; assay type: functional
[34] = test system: Staphylococcus aureus; assay: Antimicrobial activity against Staphylococcus aureus MTCC 96 at 100 ug/ml by paper-disk diffusion method; assay type: functional, organism-based
[35] = test system: Candida albicans; assay: Antimicrobial activity against Candida albicans MTCC 183 at 100 ug/ml by paper-disk diffusion method; assay type: functional, organism-based
[36] = test system: Klebsiella pneumoniae; assay: Antimicrobial activity against Klebsiella pneumoniae MTCC 109 by paper disk diffusion method; assay type: functional
[37] = test system: Klebsiella pneumoniae; assay: Antimicrobial activity against Klebsiella pneumoniae MTCC 109 by agar streak dilution method; assay type: functional

| Compound | inhibition [1] | inhibition zone (IZ) [2] [mm] | inhibition zone (IZ) [6] [mm] | inhibition zone (IZ) [8] [mm] | inhibition (percent inhibition) [9] [%] | MIC [9] [mg/L] | inhibition zone (IZ) [10] [mm] | inhibition zone (IZ) [11] | MIC [14] [mg/L] | inhibition zone (IZ) [15] | MIC [18] [mg/L] | inhibition zone (IZ) [19] | MIC [21] [mg/L] | MIC [22] [mg/L] | inhibition zone (IZ) [23] | inhibition zone (IZ) [25] | inhibition zone (IZ) [26] | inhibition zone (IZ) [27] | inhibition zone (IZ) [30] | inhibition zone (IZ) [32] | also measured |
| --- | --- | --- | --- | --- | --- | --- | --- | --- | --- | --- | --- | --- | --- | --- | --- | --- | --- | --- | --- | --- | --- |
| N#Cc1ccc(Nc2nc(Oc3ncnc4ccccc34)nc(N3CCOCC3)n2)cc1C(F)(F)F | inactive | 21 | 22 | 20 | 98 | 100 (≈ 202 µM) | 22 | inactive | > 6.25 | inactive | 100 (≈ 202 µM) | inactive | 100 (≈ 202 µM) | 100 (≈ 202 µM) | inactive | – | – | – | – | – | inhibition zone (IZ) [3]: 21 mm; inhibition zone (IZ) [4]: 22 mm; inhibition zone (IZ) [5]: 23 mm; inhibition zone (IZ) [7]: 22 mm; MIC [12]: 100 mg/L (≈ 202 µM); MIC [13]: 100 mg/L (≈ 202 µM); MIC [16]: 100 mg/L (≈ 202 µM); MIC [17]: 100 mg/L (≈ 202 µM); MIC [20]: 100 mg/L (≈ 202 µM) |
| N#Cc1ccc(Nc2nc(Oc3ncnc4ccccc34)nc(N3CCCCC3)n2)cc1C(F)(F)F | inactive | – | 20 | 20 | 94 | 500 (≈ 1020 µM) | 22 | inactive | > 6.25 | inactive | 100 (≈ 203 µM) | – | 100 (≈ 203 µM) | 100 (≈ 203 µM) | inactive | inactive | inactive | inactive | – | – | inhibition zone (IZ) [24]: 20 mm; inhibition zone (IZ) [4]: 22 mm; inhibition zone (IZ) [7]: 21 mm; MIC [12]: 100 mg/L (≈ 203 µM); MIC [17]: 100 mg/L (≈ 203 µM); MIC [28]: 100 mg/L (≈ 203 µM) |
| CN1CCN(c2nc(Nc3ccc(C#N)c(C(F)(F)F)c3)nc(Oc3ncnc4ccccc34)n2)CC1 | inactive | – | – | – | 95 | 250 (≈ 493 µM) | – | inactive | > 6.25 | inactive | – | inactive | – | – | – | inactive | inactive | inactive | inactive | inactive | inhibition zone (IZ) [29]: inactive; inhibition zone (IZ) [31]: 22 mm; MIC [33]: 100 mg/L (≈ 197 µM); inhibition zone (IZ) [34]: inactive; inhibition zone (IZ) [35]: inactive |
| CCN1CCN(c2nc(Nc3ccc(C#N)c(C(F)(F)F)c3)nc(Oc3ncnc4ccccc34)n2)CC1 | inactive | 21 | 23 | 21 | 95 | 500 (≈ 959 µM) | 23 | – | > 6.25 | inactive | 100 (≈ 192 µM) | inactive | 100 (≈ 192 µM) | 100 (≈ 192 µM) | inactive | – | inactive | inactive | inactive | inactive | inhibition zone (IZ) [36]: 19 mm; MIC [16]: 100 mg/L (≈ 192 µM); MIC [37]: 100 mg/L (≈ 192 µM) |
| N#Cc1ccc(Nc2nc(Oc3ncnc4ccccc34)nc(N3CCN(c4ccccc4)CC3)n2)cc1C(F)(F)F | inactive | – | – | 19 | 94 | 1000 (≈ 1760 µM) | – | inactive | > 6.25 | inactive | – | – | 100 (≈ 176 µM) | – | inactive | inactive | inactive | inactive | inactive | inactive | inhibition zone (IZ) [29]: inactive; inhibition zone (IZ) [24]: 23 mm; inhibition zone (IZ) [34]: inactive; MIC [28]: 50 mg/L (≈ 87.8 µM) |
